From patent publication EP4691489A1, “GROWTH HORMONE SECRETION PROMOTER” (Scohia Pharma, Inc., priority 2023, dated 2024) come the findings set out here.

Experiment [1] addresses T1, SSTR 5 (Homo sapiens, UniProt P35346). The experiment is described as follows: human SSTR5 antagonist activity using intracellular cAMP concentration as an indicator (HTRF). The conditions noted are these: 1 µM test compound; CHO (dhfr-) cells expressing human SSTR5; 0.1 nM somatostatin 28, 0.3 µM forskolin; read-out: inhibitory rate (%) against SSTR5 at 1 µM. The experiment is classed as cell-based. Also on record: expressed in transfected cells. As for the experimental part:
The intracellular cAMP concentration was measured using HTRF cAMP dynamic 2 kit (Cisbio). A test compound diluted with an assay buffer (5 mM HEPES (pH 7.5) (Invitrogen), 0.1% fatty-acid free BSA (Sigma), and 500 µM IBMX (Wako)-containing HBSS (Invitrogen)) was added at 2 µL/well to a 384-well white plate (Greiner) to a final concentration of 1 µM. Frozen stock of CHO (dhfr-) cells stably expressing the human SSTR5 gene (Accession No. NM_001053) was thawed in a thermostatic tank at 37°C and suspended in a passage medium (MEM alpha (Wako)) containing 10% dialyzed serum (Gemini) and 50 µg/mL gentamicin (Invitrogen). The cell suspension was centrifuged, and the cells were resuspended in an assay buffer, and added by 2 µL to each well at about 4,000 cells/well. The compound and the cells were incubated for 15 min, an assay buffer containing a final concentration 0.1 nM of somatostatin 28 (Toray Research Center) and 0.3 µM forskolin (Wako) was added by 2 µL/well, and the cells were incubated at room temperature for 30 min. cAMP-d2 and anti-cAMP-cryptate were each added by 3 µL/well, allowed to stand at room temperature for 60 min, and the fluorescence resonance energy transfer (FRET) intensity was measured using the Multi-label reader Envision (Perkin Elmer). The FRET intensity of the wells to which the test compound group was added was converted into cAMP concentration by using a calibration curve created from the FRET intensities of well groups in which cAMP at any concentration was added to the assay buffer. The inhibitory activity of the compound was calculated using the following formula. Inhibitory activity(%) = (C−B)/(A−B) × 100 [formula] • A: cAMP concentration calculated from wells containing 0.3 µM forskolin • B: cAMP concentration calculated from wells containing 0.3 µM forskolin, 0.1 nM somatostatin 28 • C: cAMP concentration of wells containing 0.3 µM forskolin, 0.1 nM somatostatin 28, and 1 µM test compound

For experiment [2], the system named is healthy Japanese adult men. In words: Phase 1 single dose study, blood anterior pituitary hormone concentrations (ELISA). The experiment is classed as in vivo. The conditions noted are these: human. The protocol: The examples in this section show the measurement results of blood anterior pituitary hormone concentrations using blood samples from a dose escalation study targeting healthy Japanese adult men, from A Randomized, Double-Blind, Placebo-Controlled, Phase 1 Study (jRCT2051210027) targeting healthy adults, which was conducted to examine the safety and tolerability, pharmacokinetics, and pharmacodynamic action of a single administration of test compound 1.
In a randomized, double-blind, placebo-controlled, parallel-group comparison, dose-escalation study consisting of 7 cohorts, a single dose of test compound 1 (1, 3, 10, 20, 40, 80 and 160 mg) or placebo was orally administered under fasting conditions. Eight test subjects (6 in the active drug group and 2 in the placebo group) participated in each cohort. The concomitant use of all medications was prohibited from 28 days before hospitalization until discharge.
The test subjects were inspected and examined within 28-2 days and 1 day before administration of test compound 1, and eligibility was confirmed based on the above-mentioned inclusion criteria and exclusion criteria. […] They were fasted for 10 hr before administration and 4 hr after administration until lunch, and took lunch at 13:00 p.m. The blood was collected 0.5 hr before and 1, 2, 4, 6, 8, and 10 hr after administration of test compound 1.
The concentration of anterior pituitary hormone was measured using blood from the placebo administration group of all cohorts and the test subjects who received administration of 1 mg or 10 mg of test compound 1, at 0.5 hr before administration and 2, 4, 6, 8, and 10 hr after administration. The concentrations of growth hormone, follicle-stimulating hormone, luteinizing hormone, thyroid-stimulating hormone, adrenocorticotropic hormone, and prolactin in blood were measured using the Human Growth Hormone Quantikine ELISA Kit (manufactured by R&D Systems), Follicle-Stimulating Hormone (Human) ELISA Kit (manufactured by Cayman Chemical), Luteinizing Hormome (Human) ELISA Kit (manufactured by Cayman Chemical), U-TSH ELISA (manufactured by BIOCHECK), ACTH ELISA Kit (manufactured by MB Biosciences GmbH), and Human Prolactin Quantikine ELISA Kit (manufactured by R&D Systems) according to the protocol described in the package insert of each kit.

For experiment [3], the target named is T1, SSTR 5. In words: radiolabeled ligand binding assay, selectivity for human SSTR subtype. More on the design: expressed in transfected cells; host or cells: CHO-K1 cells (membrane fraction). As for the experimental part:
(§1) The selectivity of test compounds for human SSTR subtypes was investigated by radiolabeled ligand binding assay. The membrane fraction of CHO-K1 cells expressing human SSTR1-5 was suspended in am assay buffer (25 mM HEPES (pH 7.4), 5 mM MgCl2, 1 mM CaCl2, 10 µg/mL saponin, 0.5% fatty-acid free BSA) and incubated for 1 hr in the presence of 1 µM test compound 1 and [^125I] Tyr^11-somatostatin 14 (Perkin Elmer). Thereafter, the solution containing the membrane fraction was transferred onto a filter plate, and after washing the filter six times with a wash buffer (25 mM HEPES, 5 mM MgCl2, 1 mM CaCl2), 50 µL of Microscint 20 (Packard) was added, and the radioactivity was measured using a TopCount (Perkin Elmer). The results of competitive activity of the test compound against the binding of the human SSTR subtypes with the labeled ligands are shown in Table 2.

In a further experiment the target is T2, SSTR 1 (Homo sapiens, UniProt P30872).
T2 construct: expressed in transfected cells; host or cells: CHO-K1 cells (membrane fraction)
T2 sequence (P30872 whole entry): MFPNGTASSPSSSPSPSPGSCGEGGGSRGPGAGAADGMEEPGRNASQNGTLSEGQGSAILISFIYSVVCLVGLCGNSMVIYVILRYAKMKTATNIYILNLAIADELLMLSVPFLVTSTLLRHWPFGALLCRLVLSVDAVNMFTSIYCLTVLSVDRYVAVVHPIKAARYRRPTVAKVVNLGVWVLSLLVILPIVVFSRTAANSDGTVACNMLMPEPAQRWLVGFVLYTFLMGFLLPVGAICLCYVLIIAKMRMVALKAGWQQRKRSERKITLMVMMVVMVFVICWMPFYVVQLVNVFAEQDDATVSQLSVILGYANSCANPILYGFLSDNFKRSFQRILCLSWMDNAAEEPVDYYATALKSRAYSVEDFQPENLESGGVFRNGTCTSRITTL
Described as above. The conditions noted are these: CHO-K1 membrane fraction, [125I] Tyr11-somatostatin 14, 1 µM compound. As for the experimental part:
as §1

Another experiment deals with T3, SSTR 3 (Homo sapiens, UniProt P32745).
T3 construct: expressed in transfected cells; host or cells: CHO-K1 cells (membrane fraction)
T3 sequence (P32745 whole entry): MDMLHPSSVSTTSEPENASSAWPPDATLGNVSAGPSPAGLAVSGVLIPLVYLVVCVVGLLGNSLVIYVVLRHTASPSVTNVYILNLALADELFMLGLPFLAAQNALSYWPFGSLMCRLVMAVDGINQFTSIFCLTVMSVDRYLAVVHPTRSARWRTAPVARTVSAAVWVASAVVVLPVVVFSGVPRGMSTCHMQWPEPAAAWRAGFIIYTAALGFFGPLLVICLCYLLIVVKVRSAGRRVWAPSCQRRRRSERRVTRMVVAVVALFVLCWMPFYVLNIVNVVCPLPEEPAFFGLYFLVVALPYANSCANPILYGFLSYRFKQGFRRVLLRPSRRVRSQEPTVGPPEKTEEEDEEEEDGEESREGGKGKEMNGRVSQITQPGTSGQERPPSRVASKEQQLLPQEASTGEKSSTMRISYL
The experiment is described as above. The conditions noted are these: CHO-K1 membrane fraction, [125I] Tyr11-somatostatin 14, 1 µM compound. The protocol: as §1

A further experiment concerns the target T4, SSTR 2 (Homo sapiens, UniProt P30874).
T4 construct: expressed in transfected cells; host or cells: CHO-K1 cells (membrane fraction)
The experiment is described as above. The conditions noted are these: CHO-K1 membrane fraction, [125I] Tyr11-somatostatin 14, 1 µM compound. As for the experimental part: as §1

The next experiment addresses T5, SSTR 4 (Homo sapiens, UniProt P31391).
T5 construct: expressed in transfected cells; host or cells: CHO-K1 cells (membrane fraction)
The description is as above. The conditions noted are these: CHO-K1 membrane fraction, [125I] Tyr11-somatostatin 14, 1 µM compound. The protocol:
as §1

T1 sequence (P35346 whole entry): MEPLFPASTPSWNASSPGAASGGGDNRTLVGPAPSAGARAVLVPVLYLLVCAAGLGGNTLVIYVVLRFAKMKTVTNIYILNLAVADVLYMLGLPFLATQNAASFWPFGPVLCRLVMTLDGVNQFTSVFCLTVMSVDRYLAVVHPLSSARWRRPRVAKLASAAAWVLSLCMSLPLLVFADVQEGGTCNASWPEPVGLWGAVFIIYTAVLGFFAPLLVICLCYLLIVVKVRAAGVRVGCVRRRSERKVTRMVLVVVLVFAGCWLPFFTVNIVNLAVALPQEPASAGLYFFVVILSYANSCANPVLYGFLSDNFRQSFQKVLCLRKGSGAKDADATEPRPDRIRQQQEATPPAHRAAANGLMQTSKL
T4 sequence (P30874 whole entry): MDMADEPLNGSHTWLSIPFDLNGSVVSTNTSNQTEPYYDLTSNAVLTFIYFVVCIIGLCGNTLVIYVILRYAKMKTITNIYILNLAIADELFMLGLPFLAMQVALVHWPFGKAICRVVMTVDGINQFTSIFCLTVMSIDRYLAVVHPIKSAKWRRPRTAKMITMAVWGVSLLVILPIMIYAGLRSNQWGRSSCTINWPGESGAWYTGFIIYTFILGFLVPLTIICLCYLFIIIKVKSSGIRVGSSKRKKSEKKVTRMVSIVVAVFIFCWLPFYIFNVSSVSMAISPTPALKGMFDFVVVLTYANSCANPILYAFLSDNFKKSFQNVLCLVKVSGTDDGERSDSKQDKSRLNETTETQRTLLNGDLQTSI
T5 sequence (P31391 whole entry): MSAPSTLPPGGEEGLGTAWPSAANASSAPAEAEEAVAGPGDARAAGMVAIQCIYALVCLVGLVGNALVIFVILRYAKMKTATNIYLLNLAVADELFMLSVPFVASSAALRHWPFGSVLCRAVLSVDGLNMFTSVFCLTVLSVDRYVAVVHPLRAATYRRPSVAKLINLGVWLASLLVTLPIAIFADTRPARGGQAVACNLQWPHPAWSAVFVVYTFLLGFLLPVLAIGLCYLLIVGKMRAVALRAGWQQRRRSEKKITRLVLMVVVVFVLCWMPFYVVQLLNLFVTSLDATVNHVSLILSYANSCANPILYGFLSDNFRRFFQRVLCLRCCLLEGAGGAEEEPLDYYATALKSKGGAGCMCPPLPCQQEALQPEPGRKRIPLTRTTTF

With `CCOc1c(CN2CCC(N3CCc4nc(CC)c(C(=O)O)cc4C3=O)CC2)cc(C2CC2)c(-c2ccc(F)cc2)c1F` [test compound 4, 6-(1-((6-cyclopropyl-3-ethoxy-2,4'-difluorobiphenyl-4-yl)methyl)piperidin-4-yl)-2-ethyl-5-oxo-5,6,7,8-tetrahydro-1,6-naphthyridine-3-carboxylic acid], the inhibition at 1 µM on SSTR 5 [1] was determined as 95%.
Turning to `CCOc1c(CN2CCC(n3ccc(C(=O)O)c(C)c3=O)CC2)cc(C2CC2)c(-c2ccc(F)cc2)c1F` [test compound 7, 1-(1-((6-cyclopropyl-3-ethoxy-2,4'-difluorobiphenyl-4-yl)methyl)piperidin-4-yl)-3-methyl-2-oxo-1,2-dihydropyridine-4-carboxylic acid], the inhibition at 1 µM on SSTR 5 [1] was 87%.
Consider `CCCc1nc2c(cc1C(=O)O)C(=O)N(C1CCN(Cc3cc(C4CC4)c(-c4ccc(F)cc4F)cc3OCC)CC1)CC2` [test compound 3, 6-(1-((2-cyclopropyl-5-ethoxy-2',4'-difluorobiphenyl-4-yl)methyl)piperidin-4-yl)-5-oxo-2-propyl-5,6,7,8-tetrahydro-1,6-naphthyridine-3-carboxylic acid], for which the inhibition at 1 µM on SSTR 5 [1] worked out at 125%.
For the compound `CCCc1nc2c(cc1C(=O)O)C(=O)N(C1CCN(Cc3cc(C4CC4)c(-c4ccc(F)cc4)cc3OCC)CC1)CC2` [test compound 1, 6-(1-((2-cyclopropyl-5-ethoxy-4'-fluorobiphenyl-4-yl)methyl)piperidin-4-yl)-5-oxo-2-propyl-5,6,7,8-tetrahydro-1,6-naphthyridine-3-carboxylic acid], the inhibition at 1 µM at SSTR 5 [1] was 87%. Moreover, in experiment [2] (single oral dose 1 mg and 10 mg, fasting, up to 10 hr after administration, Fig. 1), the “growth hormone secretion (blood growth hormone concentration)” value is “clearly enhance growth hormone secretion”. For the same compound, in experiment [2] (single oral dose 1 mg and 10 mg, fasting, Fig. 2), the “secretion of follicle-stimulating hormone” value is listed as “did not substantially affect the secretion”. The “secretion of luteinizing hormone” value in experiment [2] (single oral dose 1 mg and 10 mg, fasting, Fig. 3) is given as “did not substantially affect the secretion”. The “secretion of thyroid-stimulating hormone” value in experiment [2] (single oral dose 1 mg and 10 mg, fasting, Fig. 4) is listed as “did not substantially affect the secretion”. Moreover, the “secretion of adrenocorticotropic hormone” value in experiment [2] (single oral dose 1 mg and 10 mg, fasting, Fig. 5) was “did not substantially affect the secretion”. Moreover, the secretion of prolactin entry in experiment [2] (single oral dose 1 mg and 10 mg, fasting, Fig. 6) is reported as “did not substantially affect the secretion”. Also, the “increase in blood growth hormone concentration compared with growth hormone replacement therapy” value in experiment [2] (compared with literature values for patients with pediatric growth hormone deficiency (J Clin Endocrinol Metab. 2017)) is listed as “corresponds to the blood growth hormone concentration obtained by growth hormone replacement therapy”. The “labeled ligand binding rate (%) at 1 µM” value at SSTR 5 [3] (SSTR 5, CHO-K1 membrane fraction, [125I] Tyr11-somatostatin 14, 1 µM compound) is 4.51%; on SSTR 1 it was 105.83%; at SSTR 3, 99.22%; on SSTR 2, 100.31%; at SSTR 4, 109.00%. The “selectivity among the human SSTR subtypes” value at SSTR 5 [3] (conclusion from Table 2, 1 µM) is “selectively binds to SSTR5”.
On to `CCCc1nc2c(cc1C(=O)O)C(=O)N(C1CCN(Cc3cc(C4CC4)c(-c4ccc(F)cc4)c(F)c3OCC)CC1)CC2` [test compound 2, 6-(1-((6-cyclopropyl-3-ethoxy-2,4'-difluorobiphenyl-4-yl)methyl)piperidin-4-yl)-5-oxo-2-propyl-5,6,7,8-tetrahydro-1,6-naphthyridine-3-carboxylic acid], for which the inhibition at 1 µM at SSTR 5 [1] turned out to be 85%.
As for `Cc1c(C(=O)O)ccn(C2CCN(Cc3cc(C4CC4)c(-c4ccc(F)cc4)c(F)c3OC(C)C)CC2)c1=O` [test compound 6, 1-(1-((6-cyclopropyl-2,4'-difluoro-3-isopropoxybiphenyl-4-yl)methyl)piperidin-4-yl)-3-methyl-2-oxo-1,2-dihydropyridine-4-carboxylic acid], the inhibition at 1 µM at SSTR 5 [1] was 99%.
The same measure, in the same setting: in the case of `CCOc1c(CN2CCC(n3ccc(C(=O)O)c(CC)c3=O)CC2)cc(C2CC2)c(-c2ccc(F)cc2)c1F` [test compound 5, 1-(1-((6-cyclopropyl-3-ethoxy-2,4'-difluorobiphenyl-4-yl)methyl)piperidin-4-yl)-3-ethyl-2-oxo-1,2-dihydropyridine-4-carboxylic acid] it was 87%.
